Laboratory results taken from patent US20220117964A1, “COMBINATION OF FAK INHIBITOR AND BTK INHIBITOR FOR TREATING A DISEASE” (ASCENTAGE PHARMA (SUZHU) CO., LTD., priority 2019, published 2022).

Tests used:
[1] = tested on: KYSE-150 cells; assay: Colony formation assay; format: cell-based, human; details: 1 μM Compound 5, 1 μM Ibrutinib or both, 12 days
Description: (§1) Growth inhibition was detected by colony formation assay. ESCC cells were inoculated in 6-well plates at about 500 cells/well, and treated with different inhibitors or DMSO, and then replaced with fresh medium containing with different inhibitors or DMSO every 3 to 4 days. The cells were stained with crystal violet (V5265, Sigma, St Louis, Mo., USA) on day 12. After washing twice with PBS, the cells were fixed with 1% paraformaldehyde and incubated for 15 minutes at room temperature. The cells were then washed twice with PBS and stained with 0.5% crystal violet for 15 minutes at room temperature.
(§2) (1) The experimental method was as described in the items (1), (2), (5) of Example 2. […] The changes in signaling pathway of related proteins were determined by Western blotting assay.

[2] = tested on: YES-2 cells; assay: Colony formation assay; format: cell-based; details: 0.5 μM Compound 5, 0.25 μM Ibrutinib or both, 12 days
Description: as §1, §2

[3] = tested on: phosphorylated-FAK (p-FAK, Tyr397); assay: Western blot, KYSE-150 and KYSE-520 cells; format: cell-based; details: KYSE-150 (1 μM Compound 5, 1 μM Ibrutinib) and KYSE-520 (1 μM Compound 5, 0.5 μM Ibrutinib), 24 hours
Description: (§3) The cells were lysed on ice with 1× cell lysis buffer containing 1% protease inhibitor (PMSF) and 1% phosphokinase inhibitor for 30 minutes, centrifuged at 12000 rpm and 4° C. for 15 minutes, and the supernatant protein lysate was collected. The protein concentration was measured by BCA protein concentration detection kit. The cell protein lysates (20 to 50 μg) were separated using 8-12% SDS-PAGE electrophoresis. The separated proteins were transferred to a PVDF membrane. The PVDF membrane was blocked with 5% BSA buffer at room temperature for 30 minutes to 1 hour, and then incubated overnight on a 4° C. shaker with 1× TBST containing primary antibody. The redundant primary antibody was eluted, and the membrane was washed 3 times with 1× TBST, 5 to 10 minutes for each time. The protein band membrane was incubated with horseradish peroxidase-labeled secondary antibody dilution for 1 hour at room temperature, and the membrane was washed 3 times with 1× TBST, 5 to 10 minutes for each time. The signal generation and detection were performed using an ECL chemiluminescence ultrasensitive colorimetric kit and a chemiluminescence imaging system. The primary antibodies used in this experiment included: EGFR, (CST, Cat.4267S); phosphorylated EGFR (p-EGFR (Tyr1068)), (CST, Cat.3777T); FAK, (CST, Cat.3285S); phosphorylated FAK (p-FAK (Tyr397)), (CST, Cat.8556T); AKT, (CST, Cat.4685S); phosphorylated p-AKT (Ser473), (CST, Cat.9271S); ERK, (CST,Cat.4695S); phosphorylated ERK (p-ERK (Thr202/Tyr204)), (CST, Cat.4370T); phosphorylated MEK (p-MEK (Ser217/221)), (CST, Cat.9121S);BTK, (Immunoway, Cat. YM1294); C-Myc, (CST, Cat. 5605); phosphorylated C-Myc, (CST, Cat. 13748); Cyclin B1 (CST, Cat. 12231S), Cylin D1 (CST, Cat.2978S), GAPDH (ABGENT, Cat.AM1020B). The secondary antibodies used in this experiment included goat-anti-rabbit secondary antibody (Senta, Cat. Sc-2004) and goat-anti-mouse secondary antibody (Senta, Cat. Sc-2005).
as §2

[4] = tested on: phosphorylated-AKT (p-AKT, Ser397); assay: Western blot, KYSE-150 and KYSE-520 cells; format: cell-based; details: KYSE-150 (1 μM Compound 5, 1 μM Ibrutinib) and KYSE-520 (1 μM Compound 5, 0.5 μM Ibrutinib), 24 hours
Description: The cells were lysed on ice with 1× cell lysis buffer containing 1% protease inhibitor (PMSF) and 1% phosphokinase inhibitor for 30 minutes, centrifuged at 12000 rpm and 4° C. for 15 minutes, and the supernatant protein lysate was collected. The protein concentration was measured by BCA protein concentration detection kit. The cell protein lysates (20 to 50 μg) were separated using 8-12% SDS-PAGE electrophoresis. The separated proteins were transferred to a PVDF membrane. The PVDF membrane was blocked with 5% BSA buffer at room temperature for 30 minutes to 1 hour, and then incubated overnight on a 4° C. shaker with 1× TBST containing primary antibody. The redundant primary antibody was eluted, and the membrane was washed 3 times with 1× TBST, 5 to 10 minutes for each time. The protein band membrane was incubated with horseradish peroxidase-labeled secondary antibody dilution for 1 hour at room temperature, and the membrane was washed 3 times with 1× TBST, 5 to 10 minutes for each time. The signal generation and detection were performed using an ECL chemiluminescence ultrasensitive colorimetric kit and a chemiluminescence imaging system. […]
as §2

[5] = tested on: Cyclin B1; assay: Western blot, KYSE-150 and KYSE-520 cells; format: cell-based; details: KYSE-150 (1 μM Compound 5, 1 μM Ibrutinib) and KYSE-520 (1 μM Compound 5, 0.5 μM Ibrutinib), 24 hours
Description: as §3, §2

[6] = tested on: Cyclin D1; assay: Western blot, KYSE-150 and KYSE-520 cells; format: cell-based; details: KYSE-150 (1 μM Compound 5, 1 μM Ibrutinib) and KYSE-520 (1 μM Compound 5, 0.5 μM Ibrutinib), 24 hours
Description: as §3, §2

[7] = tested on: phosphorylated ERK (p-ERK, Thr202/Tyr204); assay: Western blot, KYSE-150 and KYSE-520 cells; format: cell-based; details: KYSE-150 (1 μM Compound 5, 1 μM Ibrutinib) and KYSE-520 (1 μM Compound 5, 0.5 μM Ibrutinib), 24 hours
Description: as §3, §2

SMILES	inhibitory effect on cell clone formation [1]	inhibitory effect on cell clone formation [2]	protein expression level of phosphorylated-FAK (p-FAK, Tyr397) [3]	protein expression level of phosphorylated-AKT (p-AKT, Ser397) [4]	protein expression level of Cyclin B1 [5]	protein expression level of Cyclin D1 [6]	protein expression level of phosphorylated ERK (p-ERK, Thr202/Tyr204) [7]
Cc1cc(Nc2ncc(Cl)c(Nc3ccccc3S(=O)(=O)C(C)C)n2)c(OC(C)C)cc1C1=CCN(C2CCOCC2)CC1 [Compound 5, 5-chloro-N^2-(2-isopropoxy-5-methyl-4-(1-(tetrahydro-2H-pyran-4-yl)-1,2,3,6-tetrahydropyridin-4-yl)phenyl)-N^4-(2-(isopropylsulfonyl)phenyl)pyrimidine-2,4-diamine]	stronger inhibitory effects	stronger inhibitory effects	significantly decrease	significantly decrease			
C=CC(=O)N1CCC[C@@H](n2nc(-c3ccc(Oc4ccccc4)cc3)c3c(N)ncnc32)C1 [Ibrutinib]					significantly decrease	significantly decrease	significantly decrease
